Assay results published in patent US5342942A, “Pyrazoloquinazolone derivatives as neurotrophic agents” (Warner-Lambert Company, priority 1993, dated 1994).
Structures can show the parent of a compound that is named as a salt.

The molecules below were run on NGF (assay: interaction with NGF bound to a sepharose support (FIG. 6)). Details: not given.
Assay type: binding
From the text: (§1) In principle, a compound may inhibit the binding of NGF to the p75 receptor by interacting with either protein. The compounds of the present invention are studied further as exemplified here with the compound of Example 3.

`Cn1c2ccc(NC(=O)c3ccccc3)cc2c(=O)n2nc(C(=O)O)cc12` [Example 3, 7-(Benzoylamino)-4,9-dihydro-4-methyl-9-oxopyrazolo-[5,1-b]quinazoline-2-carboxylic acid] was tested, and the “specific interaction with NGF” value was “specific interaction between Compound 3 and NGF”.

Each molecule was assayed on p75 (assay: inhibition of crosslinking of ^125 I-NGF to p75 (FIG. 4)). Details: not given.
Assay type: binding
From the text: as §1

`Cn1c2ccc(NC(=O)c3ccccc3)cc2c(=O)n2nc(C(=O)O)cc12` [Example 3, 7-(Benzoylamino)-4,9-dihydro-4-methyl-9-oxopyrazolo-[5,1-b]quinazoline-2-carboxylic acid] was tested, and the “inhibition of crosslinking of ^125 I-NGF to p75” value was “can inhibit the crosslinking of ^125 I-NGF to p75”.

What follows are molecules tested against T1, extracellular domain of the p75 receptor (Homo sapiens, UniProt P01138) (assay: inhibition of ^125 I-NGF binding to the extracellular domain of the p75 receptor (truncated form, residues 1-222, microtiter plate)). Details: FIG. 1, result in words.
T1 construct: purchased Chiron Corporation, Emeryville, Calif; (originally); also commercially available from Austral Biologicals, Inc. (San Diego, Calif.)
T1 sequence (P01138 122-241): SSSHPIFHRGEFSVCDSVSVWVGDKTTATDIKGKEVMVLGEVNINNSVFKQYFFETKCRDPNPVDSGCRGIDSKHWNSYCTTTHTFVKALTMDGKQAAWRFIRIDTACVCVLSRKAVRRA
Procedure: (§2) Assays of novel compounds are performed by measuring the compounds' ability to inhibit the binding of NGF to the NGF p75 receptor, using a truncated form (Residues 1-222, molecular weight=56 KDa) of the p75 receptor, originally obtained from Chiron Corporation, Emeryville, Calif., but also commercially available from Austral Biologicals, Inc. (San Diego, Calif.), on plastic 96-well microtiter plates (Immulon 11 Dynatech). The wells are coated with 50 μL/well of 20 μg/mL streptavidin in a […] (DPBS). The plates are then incubated at room temperature for 6 hours. The excess streptavidin is then poured out, the wells are washed with a 0.1% solution of bovine serum albumin (BSA) in DPBS. To each well is then added 50 μg/mL of a DPBS solution containing the truncated p75 receptor, which has previously been reacted with biotin by standard procedures. The plates are then incubated at room temperature for 2 hours and washed with 0.2% BSA/DPBS. To each well is added 98 μL of 2 nM ^125 I-NGF, followed by 2 μL/well of a concentration of test compound that is 50 times greater than the desired final test concentration. The plates are incubated for 2 hours at room temperature. The assay is read as the IC50, the concentration of compound that blocks 50% of the binding of ^125 I-NGF to the p75 receptor. […]

With `Cn1c2ccc(NC(=O)c3ccccc3)cc2c(=O)n2nc(C(=O)O)cc12` [Example 3, 7-(Benzoylamino)-4,9-dihydro-4-methyl-9-oxopyrazolo-[5,1-b]quinazoline-2-carboxylic acid] the “prevention of binding of ^125 I-NGF to the extracellular domain of p75” value was “prevents the binding of ^125 I-NGF to the extracellular domain of p75”.

These molecules were tested against T2, extracellular domain of the p75 receptor (Homo sapiens) in the same assay as above. Details: 2 nM ^125 I-NGF, 2 hours at room temperature; read-out: Concentration (IC50, nM): inhibition of ^125 I-NGF binding to the extracellular domain of the p75 receptor.
T2 construct: purchased Chiron Corporation, Emeryville, Calif; (originally); also commercially available from Austral Biologicals, Inc. (San Diego, Calif.)
T2 sequence (P01138 122-241): as above
Procedure: as §2

Going from `Cn1c2ccc(NC(=O)c3ccc4ccccc4c3)cc2c(=O)n2nc(C(=O)O)cc12` [Example 3i] to `Cn1c2ccc(NC(=O)c3ccccc3)cc2c(=O)n2nc(C(=O)O)cc12` [Example 3, 7-(Benzoylamino)-4,9-dihydro-4-methyl-9-oxopyrazolo-[5,1-b]quinazoline-2-carboxylic acid], the IC50 falls from 431 nM to 228 nM (1.9-fold).

First: Cn1c2ccc(NC(=O)c3ccc(I)cc3)cc2c(=O)n2nc(C(=O)O)cc12 [Example 3j, 4,9-Dihydro-7-[(4-iodobenzoyl)amino]-4-methyl-9-oxopyrazolo[5,1-b]quinazoline-2-carboxylic acid]
Second: Cn1c2ccc(NC(=O)c3ccc(F)cc3)cc2c(=O)n2nc(C(=O)O)cc12 [Example 3s, 4,9-Dihydro-7-[(4-fluorobenzoyl)amino]-4-methyl-9-oxopyrazolo[5,1-b]quinazoline-2-carboxylic acid]
The IC50 of the first is 1.8-fold higher: 472 nM for the first, 266 nM for the second.

Going from `Cn1c2ccc(NC(=O)CCCC(=O)O)cc2c(=O)n2nc(C(=O)O)cc12` [Example 3x, 7-[(4-Carboxy-1-oxobutyl)amino]-4,9-dihydro-4-methyl-9-oxopyrazolo[5,1-b]quinazoline-2-carboxylic acid] to `Cn1c2ccc(NC(=O)CCC(=O)O)cc2c(=O)n2nc(C(=O)O)cc12` [Example 3w, 7-[(3-Carboxy-1-oxopropyl)amino]-4,9-dihydro-4-methyl-9-oxopyrazolo[5,1-b]qruinazoline-2-carboxylic acid], the IC50 rises from 36 nM to 116 nM (3.2-fold). The first is the more potent here.

First: Cn1c2ccccc2c(=O)n2nc(C(=O)O)cc12 [Me H H]
Second: Cn1c2ccc(N)cc2c(=O)n2nc(C(=O)O)cc12 [Example 1, 7-Amino-4,9-dihydro-4-methyl-9-oxopyrazolo[5,1-b]-quinazoline-2-carboxylic acid]
The IC50 of the first is 16-fold higher: 30800 nM for the first, 1900 nM for the second.

Going from `Cn1c2ccc(NC(=O)c3ccc(C(=O)O)cc3)cc2c(=O)n2nc(C(=O)O)cc12` [Example 3t] to `Cn1c2ccc(NC(=O)c3ccc(Cl)cc3)cc2c(=O)n2nc(C(=O)O)cc12` [Example 3d, 7-[(4-Chlorobenzoyl)amino]-4,9-dihydro-4-methyl-9-oxopyrazolo [5,1-b]quinazoline-2-carboxylic acid], the IC50 rises from 166 nM to 250 nM (1.5-fold). The first is the more potent here.

Going from `Cn1c2ccc(NC(=O)c3ccc(Cl)c(Cl)c3)cc2c(=O)n2nc(C(=O)O)cc12` [Example 3f, 7-[(3,4-Dichlorobenzoyl)amino]-4,9-dihydro-4-methyl-9-oxopyrazolo[5,1-b]quinazoline-2-carboxylic acid] to `Cc1ccc(C(=O)Nc2ccc3c(c2)c(=O)n2nc(C(=O)O)cc2n3C)cc1I` [Example 3u, 4,9-Dihydro-7-[(3-iodo-4-methylbenzoyl)amino]-4-methyl-9-oxopyrazolo[5,1-b]quinazoline-2-carboxylic acid], the IC50 falls from 844 nM to about 200 nM (4.2-fold).

Compared with `Cc1ccccc1C(=O)Nc1ccc2c(c1)c(=O)n1nc(C(=O)O)cc1n2C` [Example 3r, 4,9-Dihydro-4-methyl-7-[(2-methylbenzoyl)amino]-9-oxopyrazolo[5,1-b]quinazoline-2-carboxylic acid], `Cc1cccc(C(=O)Nc2ccc3c(c2)c(=O)n2nc(C(=O)O)cc2n3C)c1` [Example 3p, 4,9-Dihydro-4-methyl-7-[(3-methylbenzoyl)amino]-9-oxopyrazolo[5,1-b]quinazoline-2-carboxylic acid] is lower in IC50: over 10000 nM for the first, 748 nM for the second.

Compared with `Cn1c2ccc(NC(=O)c3ccc(-c4ccccc4)cc3)cc2c(=O)n2nc(C(=O)O)cc12` [Example 3q, 7-[[(1,1'-Biphenyl)-4-ylcarbonyl]amino]-4,9-dihydro-4-methyl-9-oxopyrazolo[5,1-b]quinazoline-2-carboxylic acid], `Cc1ccc(C(=O)Nc2ccc3c(c2)c(=O)n2nc(C(=O)O)cc2n3C)cc1` [Example 7, 4,9-Dihydro-4-methyl-9-oxo-7-[(methylbenzoyl)amino]-pyrazolo[5,1-b]quinazoline-2-carboxylic acid; triethanolamine salt (1:1)] is 5.2-fold higher in IC50: 222 nM for the first, 1160 nM for the second. The first is the more potent here.

Going from `O=C(O)c1ccc2c(=O)n3nc(C(=O)O)cc3[nH]c2c1` [H H CO2 H] to `Nc1ccc2[nH]c3cc(C(=O)O)nn3c(=O)c2c1` [H NH2 H], the IC50 falls from 1100 nM to 338 nM (3.3-fold). The second is the more potent here.

Compared with `Cn1c2ccc(NC(=O)CCc3ccccc3)cc2c(=O)n2nc(C(=O)O)cc12` [Example 3h, 4,9-Dihydro-4-methyl-9-oxo-7[(1-oxo-3-phenylpropyl) -amino]pyrazolo [5,1-b]quinazoline-2-carboxylic acid], `Cn1c2ccc(NC(=O)Cc3ccccc3)cc2c(=O)n2nc(C(=O)O)cc12` [Example 3e, 4,9-Dihydro-4-methyl-9-oxo-7-[(phenylacetyl)aminol]-pyrazolo[5,1-b]quinazoline-2-carboxylic acid] is 3-fold lower in IC50: 1710 nM for the first, 568 nM for the second.

Going from `Cn1c2ccc(NC(=O)Nc3ccccc3)cc2c(=O)n2nc(C(=O)O)cc12` [Example 3g] to `CC(=O)Nc1ccc2c(c1)c(=O)n1nc(C(=O)O)cc1n2C` [Me CH3 CONH H], the IC50 falls from 3880 nM to 1700 nM (2.3-fold). The second is the more potent here.

`Cn1c2ccc(NC(=O)c3ccc([N+](=O)[O-])cc3)cc2c(=O)n2nc(C(=O)O)cc12` [Example 3k, 4,9-Dihydro-4-methyl-7-[(4-nitrobenzoyl)amino]-9-oxopyrazolo[5,1-b]quinazoline-2-carboxylic acid] and `Cc1ccc(C(=O)Nc2ccc3c(c2)c(=O)n2nc(C(=O)O)cc2n3C)cc1` [Example 3b, 4,9-Dihydro-4-methyl-9-oxo-7-[(4-methylbenzoyl)amino]-pyrazolo[5,1-b]quinazoline-2-carboxylic acid] are within 1.5-fold of each other in IC50: 229 nM for the first, 180 nM for the second.

Going from `Cn1c2ccc(NC(=O)c3ccc(C(F)(F)F)cc3)cc2c(=O)n2nc(C(=O)O)cc12` [Example 3n, 4,9-Dihydro-4-methyl-9-oxo-7-[[(4-trifluoromethyl)benzoyl]amino]pyrazolo [5,1-b]quinazoline-2-carboxylic acid] to `Cn1c2ccc(NC(=O)c3ccc(C(C)(C)C)cc3)cc2c(=O)n2nc(C(=O)O)cc12` [Example 3l, 7-[(4-tert-Butylbenzoyl)amino]-4,9-dihydro-4-methyl-9-oxopyrazolo[5,1-b]quinazoline-2-carboxylic acid], the IC50 falls from 2570 nM to 862 nM (3-fold).

First: Cn1c2ccc(NC(=O)C34CC5CC(CC(C5)C3)C4)cc2c(=O)n2nc(C(=O)O)cc12 [Example 3m, 4,9-Dihydro-4-methyl-9-oxo-7-[(tricyclo[3.3.1.1^3,7]-dec-1-ylcarbonyl)amino]pyrazolo[5,1-b]quinazoline-2-carboxylic acid]
Second: Cn1c2ccc(NC(=O)CC(=O)O)cc2c(=O)n2nc(C(=O)O)cc12 [Example 3v, 7-[(Carboxyacetyl)amino]-4,9-dihydro-4-methyl-9-oxopyrazolo[5,1-b]quinazoline-2-carboxylic acid]
The IC50 of the first is 1.9-fold higher: 2230 nM for the first, 1150 nM for the second.

Going from `Cn1c2ccc(NC(=O)c3cccs3)cc2c(=O)n2nc(C(=O)O)cc12` [Example 3a, 4,9-Dihydro-4-methyl-9-oxo-7-[(2-thienylcarbonyl)amino]pyrazolo[5,1-b]quinazoline-2-carboxylic acid] to `COc1ccc(C(=O)Nc2ccc3c(c2)c(=O)n2nc(C(=O)O)cc2n3C)cc1` [Example 3c, 4,9-Dihydro-4-methyl-9-oxo-7-[(4-methoxybenzoyl)amino]-pyrazolo[5,1-b]quinazoline-2-carboxylic acid], the IC50 rises from 690 nM to 10000 nM (14-fold). The first is the more potent here.

`Cc1ccc2c(c1)c(=O)n1nc(C(=O)O)cc1n2C` [Me Me H] and `Cc1ccc2[nH]c3cc(C(=O)O)nn3c(=O)c2c1` [H Me H] are within 1.5-fold of each other in IC50: 9700 nM for the first, 12900 nM for the second.

Each molecule was assayed on NGF receptors (assay: direct binding to NGF receptors with radioiodinated derivative of Compound 3 (FIG. 5)). Details: utilizing a radioiodinated derivative of Compound 3 (corresponding to Example 3j).
From the text: as §1

In the case of `Cn1c2ccc(NC(=O)c3ccccc3)cc2c(=O)n2nc(C(=O)O)cc12` [Example 3, 7-(Benzoylamino)-4,9-dihydro-4-methyl-9-oxopyrazolo-[5,1-b]quinazoline-2-carboxylic acid], the “direct binding to NGF receptors” value is reported as “does not bind to NGF receptors directly”.

These molecules were tested on PC12 cells that express both p75 and trk (assay: inhibition of ^125 I-NGF binding in PC12 cells that express both p75 and trk (FIG. 3)). Details: p75 about 80% and trk about 20% of total NGF receptors.
From the text: as §1

With `Cn1c2ccc(NC(=O)c3ccccc3)cc2c(=O)n2nc(C(=O)O)cc12` [Example 3, 7-(Benzoylamino)-4,9-dihydro-4-methyl-9-oxopyrazolo-[5,1-b]quinazoline-2-carboxylic acid] the “block of ^125 I-NGF binding in PC12 cells” value was “about 80%”.

Each molecule was assayed on full length p75 receptor (assay: inhibition of ^125 I-NGF binding to full length p75 receptor expressed in CHO cells that lack trk (FIG. 2)). Details: CHO cells that lack trk expression.
From the text: as §1

In the case of `Cn1c2ccc(NC(=O)c3ccccc3)cc2c(=O)n2nc(C(=O)O)cc12` [Example 3, 7-(Benzoylamino)-4,9-dihydro-4-methyl-9-oxopyrazolo-[5,1-b]quinazoline-2-carboxylic acid], the “prevention of binding of ^125 I-NGF to full length p75 receptor” value is reported as “completely prevents binding of ^125 I-NGF to full length p75 receptor”.
